Assay results taken from patent publication US20220023250A1, “ISOPROPYLCARBONATE BENZOYL PEROXIDE COMPOSITIONS AND METHODS OF USE” (Galderma Holding SA, priority 2019, published 2022).

Columns and labels:
[1] = Maximum solubility in non-volatile part of vehicle gel and in reconstituted sebum; type: physicochemical; details: for maximum solubility, TA reconstituted liquid sebum (22 H) / maximum solubility, TA reconstituted liquid sebum (extemporaneous): liquid fraction of the reconstituted sebum; for maximum solubility, TA reconstituted liquid sebum (22 H) / maximum solubility, TA non-volatile (22 H) / maximum solubility, Liquid sebum reconstituted at 32° C. (22 H): 22 H agitation; for maximum solubility, TA non-volatile (22 H): non-volatile part of the Composition A vehicle gel
Source text: In the case of active principles in dispersed form, these can dissolve after application, either in the sebum or in the non-volatile part of the formulation. […] (22 H agitation)

[2] = Maximum solubility of Isopropylcarbonate Benzoyl Peroxide in oils; type: physicochemical
Experimental: First, the maximum solubilities of Isopropylcarbonate Benzoyl Peroxide in various oils was assessed in the following table.

[3] = Compatibility of additives (keratolytic agents, opacifying agents) with 1% CD08467 gel based composition 0347.1000; type: physicochemical; details: for Notes (reason of incompatibility): Table 6, keratolytic additive in gel 0347.1000; for compatibility of keratolytic agents: summary of Table 6
Experimental: For this study, the following gel based composition was tested:
The following keratolytic agents were tested with the gel based composition indicated above:
The goal of using an opacifier is to mainly “mask” the evolution of the orange-brown color that appears over time either or the orange color present from T0. […] The chemical and physical stabilities were evaluated over 3 months at RT and 40° C.
The following opacifying agents were tested with the gel based composition indicated above: […]

[4] = Compatibility with oils: chemical and physical stability of 2.5% formulations, 3 months RT and 40° C.; type: physicochemical
Experimental: To assess the possibility of a cream formulation that restores the cutaneous barrier, the compatibility of Isopropylcarbonate Benzoyl Peroxide with oils was assessed.
Further the chemical and physical stabilities of the formulations containing 2.5% Isopropylcarbonate Benzoyl Peroxide with various oils were assessed after storage at 3 months RT and 40° C. The value of 2.5% was chosen in order to allow for comparisons to an equivalent formulation containing 2.5% benzoyl peroxide instead of 2.5% Isopropylcarbonate Benzoyl Peroxide.

[5] = series with and without TiO2
[6] = in COS SILKFLO ® 366 (POLYDECENE, Non-polar)
[7] = in ISOSTEARYL ISOSTEARATE (Average polarity)
[8] = in PARLEAM ® (HYDROGENATED POLYISOBUTENE, Non-polar)
[9] = in PRIMOL ™ 352 (MINERAL OIL, Non-polar)
[10] = in SILICON FLUID 20CST (POLYDIMETHYLSILOXANE, Average polarity)
[11] = in ST-CYCLOMETHICONE 5 NF (Average polarity)

O=C(OOC(=O)c1ccccc1)c1ccccc1 [BPO, benzoyl peroxide]
maximum solubility, TA reconstituted liquid sebum (22 H) [1]: 1.4% | maximum solubility, TA reconstituted liquid sebum (extemporaneous) [1]: 1.1% | maximum solubility, TA non-volatile (22 H) [1]: 0.35% | maximum solubility, Liquid sebum reconstituted at 32° C. (22 H) [1]: 1.8%

CC(C)OC(=O)Oc1ccccc1C(=O)OOC(=O)c1ccccc1 [CD08467]
maximum solubility, TA reconstituted liquid sebum (22 H) [1]: 1.6% | maximum solubility, TA reconstituted liquid sebum (extemporaneous) [1]: 0.25% | maximum solubility, TA non-volatile (22 H) [1]: 0.25% | maximum solubility, Liquid sebum reconstituted at 32° C. (22 H) [1]: 1.6% | % Max. Solution [2, 6]: 0.1498% | % max sol. visual [2, 6]: 0.18% | % Max. Solution [2, 7]: 0.8679% | % max sol. visual [2, 7]: 1.39% | % Max. Solution [2, 8]: 0.1862% | % max sol. visual [2, 8]: 0.50% | % Max. Solution [2, 9]: 0.1867% | % max sol. visual [2, 9]: 0.41% | % Max. Solution [2, 10]: 0.0735% | % max sol. visual [2, 10]: 0.18% | % Max. Solution ([2]; in SQUALANE PE (Non-polar)): 0.1781% | % max sol. visual ([2]; in SQUALANE PE (Non-polar)): 0.18% | % Max. Solution [2, 11]: 0.1253% | % max sol. visual [2, 11]: 0.33% | % Max. Solution ([2]; in WATER (Polar)): Not measurable | % Max. Solution ([2]; meadowfoam seed oil): 1.2925% | % max sol. visual ([2]; meadowfoam seed oil): 1.96%

O=C(O)CO [GLYCOLIC ACID]
Notes (reason of incompatibility) [3]: Fall in value 1 m | compatibility of keratolytic agents [3]: compatible

NCCCC[C@H](N)C(=O)O [L-LYSINE]
Notes (reason of incompatibility) [3]: Strong coloration

CC(O)C(=O)O (centres unmarked) [LACTIC ACID]
compatibility of keratolytic agents [3]: compatible

O=C(O)CC(O)C(=O)O (centres unmarked) [MALIC ACID]
compatibility of keratolytic agents [3]: compatible

O=P(O)(O)O[C@H]1[C@H](OP(=O)(O)O)[C@@H](OP(=O)(O)O)[C@H](OP(=O)(O)O)[C@@H](OP(=O)(O)O)[C@H]1OP(=O)(O)O [PHYTIC ACID]
compatibility of keratolytic agents [3]: compatible

O=C(O)c1ccccc1O [SALICYLIC ACID]
Notes (reason of incompatibility) [3]: Fall in value 1 m

CC(C)CCCC(C)CCCC(C)CCCCC(C)CCCC(C)CCCC(C)C (centres unmarked) [SQUALANE PE]
compatibility of Isopropylcarbonate Benzoyl Peroxide with oils ([4]; Table 8): compatible

C[Si]1(C)O[Si](C)(C)O[Si](C)(C)O[Si](C)(C)O[Si](C)(C)O1 [ST-CYCLOMETHICONE 5 NF, CYCLOMETHICONE 5]
Notes ([4]; Table 8, comparison with equivalent 2.5% benzoyl peroxide formulation): Intense orange coloration

O=C([O-])CN(CCN(CC(=O)[O-])CC(=O)O)CC(=O)O.[Na+].[Na+] [disodium EDTA, disodium ethylenediaminetetraacetic acid (EDTA)]
effect of component on stability of the formulation [5]: counter the chemically instability
